# Results from patent US20260158056A1, “USE OF LOW MOLECULAR WEIGHT HYALURONIC ACID FOR THE TREATMENT OF LUNG MUCOSAL INFLAMMATION” (INSTITUT NATIONAL DE LA SANTÉ ET DE LA RECHERCHE MÉDICALE, priority 2021, published 2026).
# How the values were obtained:
# Format in all cases: cell-based
# [1] = system: IL-8 secreted by F508del/F508del CF human airway epithelial cells; assay: IL-8 ELISA, CF airway epithelial cell monolayers, Cytomix 24 h then Cytomix + treatment 24 h (curative); conditions: FIG. 2, 5; curative: Cytomix 24 h, then Cytomix + HA 1 mg/mL or Dexa 10^-6M 24 h; n=7 CF patients
# Description: FIG. 2: Measurement by ELISA assay of the pro-inflammatory chemokine IL-8 secreted by F508del/F508del CF human airway epithelial cells cultured as monolayers. Airway epithelial cells were seeded in 48-wells plates and cultured until confluence was reached. Cells were then treated for 24 h with a pro-inflammatory chemokine cocktail (TNFα, IL1β and IFNγ; 10 ng/mL each) called Cytomix (Cy). Cells were thereafter treated with a combo containing Cytomix and the anti-inflammatory dexamethasone (Dexa; 10^-6M), or 15-45 kDa sodium-hyaluronic acid (HA-Na 15-45 kDa) (ARD—Pomacle—France—as prepared according to WO2004050187), 15-30 kDa sodium-hyaluronic acid (HA-Na 15-30 kDa) (Sigma Aldrich), or 30-50 kDa sodium-hyaluronic acid (HA-Na 30-50 kDa) (Sigma Aldrich) at 1 mg/mL during the following 24 h. The culture medium was finally collected and the IL-8 content was determined by ELISA assay. n=7 different F508del/F508del CF patients. p<0.001 (***); p<0.01 (**); p<0.05 (*).ns: non-significant.
# FIG. 5: Measurement by ELISA assay of the pro-inflammatory chemokine IL-8 secreted by F508del/F508del CF human airway epithelial cells cultured as monolayers. Airway epithelial cells were seeded in 48-wells plates and cultured until confluence was reached. Cells were then treated for 24 h with a pro-inflammatory chemokine cocktail (TNFα, IL1β and IFNγ; 10 ng/ml each) called Cytomix (Cy). Cells were thereafter treated with a combo containing Cytomix and the anti-inflammatory dexamethasone (Dexa; 10^-6M), or 15-45 kDa sodium-hyaluronic acid (HA-Na 15-45 kDa) (ARD—Pomacle—France—as prepared according to WO2004050187), 15-45 kDa calcium-hyaluronic acid (HA-Ca 15-45 kDa; ARD), or 15-45 kDa potassium-hyaluronic acid (HA-K 15-45 kDa; ARD) at 1 mg/mL during the following 24 h. The culture medium was finally collected and the IL-8 content was determined. n=7 different F508del/F508del CF patients. p<0.001 (***); p<0.01 (**); p<0.05 (*). ns: non-significant.
# [2] = system: IL-8 secreted by human COPD airway epithelial cells; assay: IL-8 ELISA, COPD airway epithelial cell monolayers, Cytomix 24 h then Cytomix + treatment 24 h (curative); conditions: FIG. 17, 19; curative: Cytomix 24 h, then Cytomix + HA 1 mg/mL or Dexa 10^-6M 24 h; n=5 COPD patients
# Description: FIG. 17: Measurement by ELISA assay of the pro-inflammatory chemokine IL-8 secreted human COPD airway epithelial cells cultured as monolayers. Airway epithelial cells were seeded in 48-wells plates and cultured until confluence was reached. Cells were then treated for 24 h with a pro-inflammatory chemokine cocktail (TNFα, IL1β and IFNγ 10 ng/ml each) called Cytomix (Cy). Cells were thereafter treated with a combo containing Cytomix and the anti-inflammatory dexamethasone (Dexa; 10^-6M), 15-45 kDa sodium-hyaluronic acid (HA-Na 15-45 kDa) (ARD—Pomacle—France—as prepared according to WO2004050187), 15-30 kDa sodium-hyaluronic acid (HA-Na 15-30 kDa) (Sigma Aldrich), or 30-50 kDa sodium-hyaluronic acid (HA-Na 30-50 kDa) (Sigma Aldrich) at 1 mg/mL during the following 24 h. The culture medium was finally collected and the IL-8 content was determined by ELISA assay. n=5 different COPD patients. p<0.001 (***); p<0.01 (**); p<0.05 (*). ns: non-significant.
# FIG. 19: Measurement by ELISA assay of the pro-inflammatory chemokine IL-8 secreted by human COPD airway epithelial cells cultured as monolayers. Airway epithelial cells were seeded in 48-wells plates and cultured until confluence was reached. Cells were then treated for 24 h with a pro-inflammatory chemokine cocktail (TNFα, IL1β and IFNγ 10 ng/ml each) called Cytomix (Cy). Cells were thereafter treated with a combo containing Cytomix and the anti-inflammatory dexamethasone (Dexa; 10^-6M), or 15-45 kDa sodium-hyaluronic acid (HA-Na 15-45 kDa) (ARD—Pomacle—France—as prepared according to WO2004050187), 15-45 kDa calcium-hyaluronic acid (HA-Ca 15-45 kDa; ARD), or 15-45 kDa potassium hyaluronic acid (HA-K 15-45 kDa; ARD) at 1 mg/mL during the following 24 h. The culture medium was finally collected and the IL-8 content was determined. n=5 different COPD patients. p<0.001 (***); p<0.01 (**); p<0.05 (*). ns: non-significant.
# [3] = system: IL-8 secreted by F508del/F508del CF human airway epithelial cells; assay: IL-8 ELISA, CF airway epithelial cell monolayers, Cytomix + treatment 24 h (co-treatment); conditions: FIG. 3, 6; co-treatment: Cytomix + HA 1 mg/mL or Dexa 10^-6M 24 h; n=7 CF patients
# Description: FIG. 3: Measurement by ELISA assay of the pro-inflammatory chemokine IL-8 secreted by F508del/F508del CF human airway epithelial cells cultured as monolayers. Airway epithelial cells were seeded in 48-wells plates and cultured until confluence was reached. Cells were then treated for 24 h with a combo containing a pro-inflammatory chemokine cocktail (TNFα, IL1β and IFNγ; 10 ng/mL each) called Cytomix (Cy) and the anti-inflammatory dexamethasone (Dexa; 10^-6M), 15-45 kDa sodium-hyaluronic acid (HA-Na 15-45 kDa) (ARD—Pomacle—France—as prepared according to WO2004050187), 15-30 kDa sodium-hyaluronic acid (HA-Na 15-30 kDa) (Sigma Aldrich), or 30-50 kDa sodium-hyaluronic acid (HA-Na 30-50 kDa) (Sigma Aldrich) at 1 mg/mL. The culture medium was then collected and the IL-8 content was determined. n=7 F508del/F508del CF patient. p<0.001 (***); p<0.01 (**); p<0.05 (*). ns: non-significant.
# FIG. 6: Measurement by ELISA assay of the pro-inflammatory chemokine IL-8 secreted by F508del/F508del CF human airway epithelial cells cultured as monolayers. Airway epithelial cells were seeded in 48-wells plates and cultured until confluence was reached. Cells were then treated for 24 h with a combo containing a pro-inflammatory chemokine cocktail (TNFα, IL1β and IFNγ 10 ng/mL each) called Cytomix (Cy) and the anti-inflammatory dexamethasone (Dexa; 10^-6M), or 15-45 kDa sodium-hyaluronic acid (HA-Na 15-45 kDa) (ARD—Pomacle—France—as prepared according to WO2004050187), 15-45 kDa calcium-hyaluronic acid (HA-Ca 15-45 kDa; ARD), or 15-45 kDa potassium-hyaluronic acid (HA-K 15-45 kDa; ARD) at 1 mg/mL. The culture medium was then collected and the IL-8 content was determined. n=7 different F508del/F508del CF patients. p<0.001 (***); p<0.01 (**); p<0.05 (*). ns: non-significant.
Molecule,decrease in IL-8 secretion [1] [%],decrease in IL-8 secretion [2] [%],decrease in IL-8 secretion [3] [%]
15-30 kDa sodium-hyaluronic acid [HA-Na 15-30 kDa],44.2,65,40.2
15-45 kDa calcium-hyaluronic acid [HA-Ca 15-45 kDa],33.6,61.5,11.6
15-45 kDa potassium-hyaluronic acid [HA-K 15-45 kDa],47.5,61.1,30
15-45 kDa sodium-hyaluronic acid [HA-Na 15-45 kDa],32.1,60.2,33.9
30-50 kDa sodium-hyaluronic acid [HA-Na 30-50 kDa],42.2,69.5,30.1
"C[C@@H]1C[C@H]2[C@@H]3CCC4=CC(=O)C=C[C@]4(C)[C@@]3(F)[C@@H](O)C[C@]2(C)[C@@]1(O)C(=O)CO [Dexamethasone, dexamethasone, reference compound]",30.9,68.8,21.4
